The source of these data is patent US9475842B2, “Hexadepsipeptide analogues as anticancer compounds” (PIRAMAL ENTERPRISES LIMITED, priority 2012, dated 2016).

By IC50 is commonly meant the point on the concentration scale where inhibition reaches its midpoint.

Data set [1] relates to HCT 116 (Colorectal Cancer). In words: Monolayer assay (CCK-8 cytotoxicity). The data set is classed as cell-based, human. The following applies: Homo sapiens, HCT-116; HCT116, Colon; 24 hrs exposure, CCK-8; read-out: IC50. On the procedure:
(§1) The assays were designed as in the reference, BMC Cancer, 2010, 10, 610, 1-11; the disclosure of which is incorporated by reference for the teaching of the assay.
(§2) Human tumour cell lines: Panc-1 (Pancreatic Cancer), HCT 116 (Colorectal Cancer), ACHN (Renal Cell Carcinoma), Calu-1 (Lung Carcinoma), MiaPaca2 (Pancreatic Cancer), FADU (Head and Neck Cancer), PC3 (prostate Cancer), G361 (Melanoma), MDA-MB435S (Melanoma), HeLa (Cervical Cancer) were grown in Minimal Essential Media with Eagle's Basal Salts (MEM-EBS) obtained from AMIMED (BioConcept-Switzerland). Tumour cell lines: MDA-MB231 (Breast Cancer), JURKAT (T cell leukaemia), H460 (Small Cell Lung Cancer) were cultured in RPMI 1640 (AMIMED, BioConcept, Switzerland) medium. All tumour cell lines were supplemented with 10% Foetal Bovine Serum (FBS) (GIBCO), 1% Penicillin/Streptomycin (Sigma) and 1% Anti-Anti (GIBCO) and grown in T-175 tissue culture flasks (Nunc). MCF-10A, a non-tumourigenic cell line, was cultured in Mammary Epithelial Basal Medium (MEBM) with all standard additions (Lonza, Catalog. No. CC-3150). All cells were grown in 5% CO2 incubator at 37° C. Cells were passaged at 80-90% confluence. Adherent cells were trypsinised using Trypsin-EDTA (Sigma) and maintained. All cell lines were purchased from ATCC (Rockville, Md., USA).
(§3) Compound of Formula (1a) [described in example 7] was dissolved in DMSO to give a required stock solution of 20 mM. Eight different concentrations of the compound of Formula (1a) were prepared by serial dilution of stock solution finally resulting in a (compared to the test concentration) 200-fold higher concentration. Compound of Formula (1a) was tested at the concentration of 0.0001 μM, 0.001 μM, 0.01 μM, 0.03 μM, 0.1 μM, 0.3 μM, 1 μM and 3 μM respectively. Each concentration was evaluated in triplicate.
(§4) Method for determination of IC50 of the compound of Formula (1a): • a) Different cancer/normal cells were seeded at a density of 3000 cells/200 μL well, in a tissue culture grade 96 well plate and allowed them to recover for 24 hrs in a humidified 5±0.2% CO2 incubator at 37±0.5° C. • b) After 24 hrs, 1 μL of 200× (200 times higher than required concentration is denoted as 200×) compound of Formula (1a), dissolved in DMSO, was added to the above tissue culture plate seeded with cancer/normal cells. The final concentration of DMSO was 0.5% in wells. DMSO was used as a vehicle control. • c) After 24 hrs the plate was removed from CO2 incubator and 5 μL of CCK-8 (Dojindo Molecular Technologies, Inc. USA, catalog, no. CK04-20) per well was added. • d) The plate was then placed at 37° C. for 2 hrs. • e) The absorbance was recorded at 450 nm. • f) The percent cytotoxicity was calculated using the following formula
(§5) The IC50 value was estimated by visual inspection of the concentration-effect curve. For calculation of mean IC50 values over the fourteen cell lines as tested, the geometric mean was selected.
(§6) The assays were designed as described above in example 16.
(§7) The IC50 value was estimated by visual inspection of the concentration-effect curve. For calculation of mean IC50 values over the six cell lines (PC3, MDA MB, HCT116, MCF7, MIAPaCa2, MCF10A) as tested, the geometric mean was selected.

Data set [2] has as its system MDA-MB231 (Breast Cancer). Briefly: Monolayer assay (CCK-8 cytotoxicity). It counts as cell-based, human. The note with it: Homo sapiens, MDA-MB-231; MDAMB231, Breast; 24 hrs exposure, CCK-8; read-out: IC50. On the procedure:
as §1, §2, §3, §4, §5, §6, §7

The next data set deals with PC3 (prostate Cancer). Briefly: Monolayer assay (CCK-8 cytotoxicity). The data set is classed as cell-based, human. The following applies: Homo sapiens; PC3, Prostate; 24 hrs exposure, CCK-8; read-out: IC50. On the procedure: as §1, §2, §3, §4, §5, §6, §7
The test system of data set [3] is ACHN (Renal Cell Carcinoma). In words: Monolayer assay (CCK-8 cytotoxicity). The data set is classed as cell-based. The following applies: Homo sapiens, 24 hrs exposure. On the procedure: as §1, §2, §3, §4, §5
Another data set concerns Calu-1 (Lung Carcinoma). Briefly: Monolayer assay (CCK-8 cytotoxicity). It counts as cell-based. The following applies: Homo sapiens, 24 hrs exposure. On the procedure: as §1, §2, §3, §4, §5
Data set [4] deals with FADU (Head and Neck Cancer). In words: Monolayer assay (CCK-8 cytotoxicity). It counts as cell-based. The following applies: Homo sapiens, 24 hrs exposure. On the procedure:
as §1, §2, §3, §4, §5

The test system of another data set is G361 (Melanoma). Briefly: Monolayer assay (CCK-8 cytotoxicity). The data set is classed as cell-based. The following applies: Homo sapiens, G-361, 24 hrs exposure. On the procedure: as §1, §2, §3, §4, §5
For the next data set, the system named is H460. Briefly: Monolayer assay (CCK-8 cytotoxicity). The data set is classed as cell-based. The following applies: Homo sapiens, NCI-H460, H460, Non Small Cell Lung, 24 hrs exposure. On the procedure: as §1, §2, §3, §4, §5
A further data set has as its system HeLa (Cervical Cancer). Briefly: Monolayer assay (CCK-8 cytotoxicity). The following applies: Homo sapiens, 24 hrs exposure. The data set is classed as cell-based. On the procedure:
as §1, §2, §3, §4, §5

Data set [5] deals with JURKAT (T cell leukaemia). In words: Monolayer assay (CCK-8 cytotoxicity). The following applies: Homo sapiens, 24 hrs exposure. The data set is classed as cell-based. On the procedure: as §1, §2, §3, §4, §5
The subject of a further data set is MDA-MB435S (Melanoma). Briefly: Monolayer assay (CCK-8 cytotoxicity). It counts as cell-based. The following applies: Homo sapiens, MDA-MB-435S, MDAMB435S, 24 hrs exposure. On the procedure: as §1, §2, §3, §4, §5
Data set [6] deals with Panc-1 (Pancreatic Cancer). Briefly: Monolayer assay (CCK-8 cytotoxicity). It counts as cell-based. The following applies: Homo sapiens, 24 hrs exposure. On the procedure:
as §1, §2, §3, §4, §5

Data set [7] has as its system MiaPaca2 (Pancreatic Cancer). Briefly: Monolayer assay (CCK-8 cytotoxicity). The note with it: Homo sapiens, MIA PaCa-2, MiaPaca 2, Pancreatic, 24 hrs exposure. The data set is classed as cell-based. On the procedure: as §1
as §2, with “Adherent cells were trypsinised using Trypsin-EDTA (Sigma) and maintained. All cell lines were purchased from ATCC (Rockville, Md., USA).” left out
Compound of Formula (1a) [described in example 7] was dissolved in DMSO to give a required stock solution of 20 mM. […] Each concentration was evaluated in triplicate. […]

Data set [8] can be described thus: Solubility (physical properties). It counts as physicochemical.

`CC(C)CC1CCC(O)(C(C)(O)C(=O)NC2C(=O)N3NCCCC3C(=O)N(O)C(C)C(=O)NCC(=O)N3NCCCC3C(=O)N(O)C(C)C(=O)OC2C(C)C)OC1C` (stereo not drawn) [Formula (1a), N-(6,18-dihydroxy-22-isopropyl-7,19-dimethyl-5,8,11,17,20,24-hexaoxotetracosa hydrodipyridazino[6,1-f:6′,1′-o][1,4,7,10,13,16]oxapentaazacyclononadecin-23-yl)-2-hydroxy-2-(2-hydroxy-5-isobutyl-6-methyltetrahydro-2H-pyran-2-yl)propanamide]: the IC50 in [1] was found to be 0.0151 ± 0.0023 µM; in [2], 0.0061 ± 0.00052 µM; with PC3 (prostate Cancer), 0.0052 ± 0.00041 µM; in data set [3] it was 0.0071 ± 0.00064 µM; in the data set with Calu-1 (Lung Carcinoma), 0.0252 ± 0.0035 µM; in data set [4], 0.0224 ± 0.0012 µM. In addition, the IC50 worked out at 0.0241 ± 0.0043 µM in the data set with G361 (Melanoma); 0.0092 ± 0.00076 µM in the data set with H460; 0.0101 ± 0.0031 µM with HeLa (Cervical Cancer); 0.0159 ± 0.0026 µM in data set [5]; 0.0029 ± 0.00048 µM in the data set on MDA-MB435S (Melanoma); 0.0013 ± 0.00032 µM in data set [6]. This molecule returned a 50% inhibitory concentration (IC50) in data set [7] of 0.0253 ± 0.0046 µM. The “Solubility in organic solvents” value in data set [8] (chloroform, ethyl acetate and methanol) was “Soluble in chloroform, ethyl acetate and methanol;”. Further, the Solubility in water result in data set [8] (water) is recorded as “insoluble in water”.
